Assays:
[1] = Inhibition of TNF-induced NF-kappaB activation in human A549 cells after 15 hrs; conditions: Homo sapiens, A549, 15 h, read-out: pIC50 (converted)
A549 = experiment: Inhibition of TNF-induced NFkappaB activation in human A549 cells after 15 hrs relative to Dexamethasone; type: cell-based; design: scale not given: the % may be the effect or the level left
[2] = Clearance in Sprague-Dawley rat at 1 mg/kg, iv and 1 mg/kg, po; type: ADME, organism-based; conditions: in vivo
[3] = Volume of distribution at steady state in Sprague-Dawley rat at 1 mg/kg, iv and 1 mg/kg, po; type: ADME, organism-based; conditions: in vivo, read-out: Vdss
[4] = Oral bioavailability in Sprague-Dawley rat at 1 mg/kg; type: ADME, organism-based; conditions: in vivo
Glucocorticoid receptor [5] = target: T1, Glucocorticoid receptor (Homo sapiens, UniProt P04150)
T1 sequence (P04150 whole entry): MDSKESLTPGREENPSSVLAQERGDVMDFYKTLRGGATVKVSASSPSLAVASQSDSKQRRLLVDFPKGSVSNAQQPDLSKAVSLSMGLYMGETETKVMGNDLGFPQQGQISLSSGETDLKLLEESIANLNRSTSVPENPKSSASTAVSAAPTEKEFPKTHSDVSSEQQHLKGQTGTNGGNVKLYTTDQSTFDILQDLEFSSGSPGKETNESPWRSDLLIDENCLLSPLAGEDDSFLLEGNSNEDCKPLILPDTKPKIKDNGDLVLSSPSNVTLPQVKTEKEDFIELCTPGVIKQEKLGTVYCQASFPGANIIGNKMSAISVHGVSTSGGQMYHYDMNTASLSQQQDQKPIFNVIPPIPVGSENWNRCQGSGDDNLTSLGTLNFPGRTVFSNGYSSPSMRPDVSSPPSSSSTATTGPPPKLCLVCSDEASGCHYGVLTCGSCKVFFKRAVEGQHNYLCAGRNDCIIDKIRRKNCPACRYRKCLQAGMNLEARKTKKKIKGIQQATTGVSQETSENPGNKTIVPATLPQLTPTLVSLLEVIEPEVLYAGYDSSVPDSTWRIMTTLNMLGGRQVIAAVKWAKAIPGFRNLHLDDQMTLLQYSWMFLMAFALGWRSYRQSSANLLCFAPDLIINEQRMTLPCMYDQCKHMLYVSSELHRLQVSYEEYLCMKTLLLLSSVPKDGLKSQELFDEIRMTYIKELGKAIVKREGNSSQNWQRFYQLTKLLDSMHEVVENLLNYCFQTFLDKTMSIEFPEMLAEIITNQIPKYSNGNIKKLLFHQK
Description: Displacement of fluorescent labelled Dexamethasone from glucocorticoid receptor

Glucocorticoid receptor [6] = target: T1, Glucocorticoid receptor; remark: listed apart in the source
Description: Agonist activity at human glucocorticoid receptor in human A549 cells assessed as transcriptional activity by MMTV luciferase reporter gene assay

Cytochrome P450 1A2 = target: T2, Cytochrome P450 1A2 (Homo sapiens, UniProt P05177); experiment: Inhibition of CYP1A2; type: ADME
T2 sequence (P05177 whole entry): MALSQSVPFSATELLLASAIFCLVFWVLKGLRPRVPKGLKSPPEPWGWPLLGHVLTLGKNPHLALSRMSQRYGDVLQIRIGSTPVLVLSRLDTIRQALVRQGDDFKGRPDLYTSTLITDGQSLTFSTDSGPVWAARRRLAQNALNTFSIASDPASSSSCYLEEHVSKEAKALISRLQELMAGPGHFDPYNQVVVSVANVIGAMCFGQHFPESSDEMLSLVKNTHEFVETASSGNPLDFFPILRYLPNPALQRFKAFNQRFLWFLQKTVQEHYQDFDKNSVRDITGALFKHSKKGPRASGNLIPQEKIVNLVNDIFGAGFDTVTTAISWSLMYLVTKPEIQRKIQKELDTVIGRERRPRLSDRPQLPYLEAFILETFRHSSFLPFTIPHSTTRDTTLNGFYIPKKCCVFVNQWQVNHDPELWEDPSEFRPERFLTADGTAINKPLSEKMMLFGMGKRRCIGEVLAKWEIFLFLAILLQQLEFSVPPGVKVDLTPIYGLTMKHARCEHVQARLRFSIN

Cytochrome P450 2C19 = Cytochrome P450 2C19 (Homo sapiens, UniProt P33261); experiment: Inhibition of CYP2C19; type: ADME
Cytochrome P450 2C9 = Cytochrome P450 2C9 (Homo sapiens, UniProt P11712); experiment: Inhibition of CYP2C9; type: ADME
Cytochrome P450 2D6 = Cytochrome P450 2D6 (Homo sapiens, UniProt P10635); experiment: Inhibition of CYP2D6; type: ADME
Albumin = Albumin (Homo sapiens, UniProt P02768); experiment: Binding affinity to human serum albumin by fast gradient HPLC; type: ADME; conditions: isolated protein
[7] = Protein binding in human plasma by ultrafiltration; type: ADME, cell-free; conditions: read-out: PPB (converted)
Cytochrome P450 3A4 = Cytochrome P450 3A4 (Homo sapiens, UniProt P08684)
Cytochrome P450 3A4, sequence (P08684 whole entry): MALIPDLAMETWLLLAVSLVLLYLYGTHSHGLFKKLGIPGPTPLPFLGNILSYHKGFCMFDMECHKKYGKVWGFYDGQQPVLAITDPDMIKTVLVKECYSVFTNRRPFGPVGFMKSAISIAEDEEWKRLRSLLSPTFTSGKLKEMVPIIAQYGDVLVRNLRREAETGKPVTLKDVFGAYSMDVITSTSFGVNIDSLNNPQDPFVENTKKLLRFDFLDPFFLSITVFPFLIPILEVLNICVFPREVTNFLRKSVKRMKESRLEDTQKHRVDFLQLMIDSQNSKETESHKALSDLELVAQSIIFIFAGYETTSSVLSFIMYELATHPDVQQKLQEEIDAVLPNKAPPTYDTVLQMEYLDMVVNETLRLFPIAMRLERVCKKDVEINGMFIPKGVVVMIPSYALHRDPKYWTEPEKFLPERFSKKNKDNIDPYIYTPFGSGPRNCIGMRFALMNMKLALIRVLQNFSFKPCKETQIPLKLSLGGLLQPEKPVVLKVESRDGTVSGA

Cytochrome P450 2C19, sequence (P33261 whole entry): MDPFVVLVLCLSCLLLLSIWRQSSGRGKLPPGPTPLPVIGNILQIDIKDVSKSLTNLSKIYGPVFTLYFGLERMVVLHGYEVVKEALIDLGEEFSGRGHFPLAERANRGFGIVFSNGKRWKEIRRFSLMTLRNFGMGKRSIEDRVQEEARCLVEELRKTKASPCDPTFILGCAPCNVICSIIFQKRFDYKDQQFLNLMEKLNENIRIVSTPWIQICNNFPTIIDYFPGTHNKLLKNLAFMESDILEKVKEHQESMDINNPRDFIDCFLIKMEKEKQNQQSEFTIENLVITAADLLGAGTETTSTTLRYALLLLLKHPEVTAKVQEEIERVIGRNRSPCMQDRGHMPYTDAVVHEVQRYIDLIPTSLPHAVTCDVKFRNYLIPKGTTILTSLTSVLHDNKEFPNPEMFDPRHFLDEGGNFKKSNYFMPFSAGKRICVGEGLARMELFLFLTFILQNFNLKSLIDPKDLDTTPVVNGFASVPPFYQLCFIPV
Albumin, sequence (P02768 whole entry): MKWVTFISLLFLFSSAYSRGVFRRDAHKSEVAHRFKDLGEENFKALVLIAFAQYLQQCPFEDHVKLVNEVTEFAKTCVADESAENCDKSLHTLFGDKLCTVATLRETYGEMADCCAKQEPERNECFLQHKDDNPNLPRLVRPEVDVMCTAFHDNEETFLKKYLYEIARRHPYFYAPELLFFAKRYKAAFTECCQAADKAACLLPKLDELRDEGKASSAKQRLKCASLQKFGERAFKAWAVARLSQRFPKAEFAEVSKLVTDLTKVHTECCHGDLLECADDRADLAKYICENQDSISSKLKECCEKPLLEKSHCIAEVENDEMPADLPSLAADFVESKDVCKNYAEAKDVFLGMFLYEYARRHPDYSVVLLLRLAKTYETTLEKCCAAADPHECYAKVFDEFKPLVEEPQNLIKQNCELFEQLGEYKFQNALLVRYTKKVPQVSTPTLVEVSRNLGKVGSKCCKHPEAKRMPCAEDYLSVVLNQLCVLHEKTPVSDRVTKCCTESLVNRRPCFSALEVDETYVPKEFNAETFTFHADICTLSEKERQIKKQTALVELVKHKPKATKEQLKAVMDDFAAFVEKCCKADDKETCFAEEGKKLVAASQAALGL
Cytochrome P450 2C9, sequence (P11712 whole entry): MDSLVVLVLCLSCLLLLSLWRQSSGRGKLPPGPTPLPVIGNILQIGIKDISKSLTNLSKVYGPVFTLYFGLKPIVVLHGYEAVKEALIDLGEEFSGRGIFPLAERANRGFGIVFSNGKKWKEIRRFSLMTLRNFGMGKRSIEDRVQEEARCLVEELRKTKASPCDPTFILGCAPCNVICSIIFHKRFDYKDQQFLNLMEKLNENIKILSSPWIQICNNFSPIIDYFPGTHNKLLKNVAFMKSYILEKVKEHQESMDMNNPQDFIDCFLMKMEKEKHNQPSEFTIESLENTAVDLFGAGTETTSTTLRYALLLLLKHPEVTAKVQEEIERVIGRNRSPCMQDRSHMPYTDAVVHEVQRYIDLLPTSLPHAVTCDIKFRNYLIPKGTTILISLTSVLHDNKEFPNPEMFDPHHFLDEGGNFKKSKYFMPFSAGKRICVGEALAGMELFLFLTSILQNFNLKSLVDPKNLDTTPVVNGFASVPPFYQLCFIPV
Cytochrome P450 2D6, sequence (P10635 whole entry): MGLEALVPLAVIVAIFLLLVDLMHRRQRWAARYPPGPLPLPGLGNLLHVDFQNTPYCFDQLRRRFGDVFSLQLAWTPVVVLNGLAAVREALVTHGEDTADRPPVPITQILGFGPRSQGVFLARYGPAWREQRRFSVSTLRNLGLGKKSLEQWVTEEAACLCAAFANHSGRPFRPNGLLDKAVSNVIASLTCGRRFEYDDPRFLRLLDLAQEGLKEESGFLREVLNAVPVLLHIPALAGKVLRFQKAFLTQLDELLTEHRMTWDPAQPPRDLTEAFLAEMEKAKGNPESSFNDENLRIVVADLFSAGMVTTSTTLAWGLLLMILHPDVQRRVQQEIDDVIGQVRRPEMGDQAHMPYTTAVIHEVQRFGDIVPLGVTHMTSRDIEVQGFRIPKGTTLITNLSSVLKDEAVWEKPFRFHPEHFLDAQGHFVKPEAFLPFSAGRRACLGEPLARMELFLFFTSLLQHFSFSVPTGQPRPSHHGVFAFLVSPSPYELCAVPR

Row | SMILES | IC50 [1] | clearance [2] | Vd [3] | bioavailability [4] | IC50 (Glucocorticoid receptor [5]) | EC50 (Glucocorticoid receptor [6]) | IC50 (Cytochrome P450 1A2) | IC50 (Cytochrome P450 2C19) | IC50 (Cytochrome P450 2C9) | IC50 (Cytochrome P450 2D6) | Activity (Albumin) | fraction unbound [7] | IC50 (Cytochrome P450 3A4) | Activity (A549)
1 | CCCN(CC(O)(CNC(=O)c1cnn(-c2ccc(F)cc2)c1N)C(F)(F)F)C(=O)c1c(F)cccc1F (racemic) | 15.8 nM | 36 mL/min/kg | 5.3 L/kg | 16% | 15.8 nM | 25.1 nM | – | – | – | – | – | – | – | 96%
2 | CCN(CC(O)(CNC(=O)c1cnn(-c2ccc(F)cc2)c1N)C(F)(F)F)C(=O)c1ccccc1Cl (stereo in doubt; 13e) [listing 1 of 2 here] | – | – | – | – | – | – | – | – | – | – | – | – | – | 75%
3 | Nc1c(C(=O)NCC(O)(CN(CCF)C(=O)c2c(F)cccc2F)C(F)(F)F)cnn1-c1ccc(F)cc1 (racemic) | 10 nM | 21 mL/min/kg | 2.6 L/kg | 39% | 20 nM | 50.1 nM | 100000 nM | 8000 nM | 4000 nM | 20000 nM | 93% | 0.07 | 500 nM | 94%
4 | CCN(CC(O)(CNC(=O)c1cnn(-c2ccc(F)cc2)c1N)C(F)(F)F)C(=O)c1ccccc1 (racemic) | – | – | – | – | – | – | – | – | – | – | – | – | – | 88%
5 | CCN(CC(O)(CNC(=O)c1cnn(-c2ccc(F)cc2)c1N)C(F)(F)F)C(=O)c1c(Cl)cccc1Cl (stereo not given) | 0.501 nM | – | – | – | 3.16 nM | 2 nM | 100000 nM | 7000 nM | 800 nM | 89000 nM | 95% | 0.01 | 700 nM | 101%
6 | CCN(CC(O)(CNC(=O)c1cnn(-c2ccc(F)cc2)c1N)C(F)(F)F)C(=O)c1ccccc1S(C)(=O)=O (stereo not given) [listing 2 of 2 here] | – | – | – | – | – | – | – | – | – | – | – | – | – | 99%
7 | Nc1c(C(=O)NCC(O)(CN(CCO)C(=O)c2c(Cl)cccc2Cl)C(F)(F)F)cnn1-c1ccc(F)cc1 (stereo not given) | – | – | – | – | – | – | 100000 nM | 20000 nM | 3000 nM | 54000 nM | 89% | 0.07 | 100000 nM | –
8 | Nc1c(C(=O)NCC(O)(CNC(=O)c2c(F)cccc2F)C(F)(F)F)cnn1-c1ccc(F)cc1 (racemic) | 316 nM | – | – | – | 398 nM | > 6310 nM | – | – | – | – | – | – | – | 80%

The next lines start with results.

Row | IC50 [1] | clearance [2] | Vd [3] | bioavailability [4] | IC50 (Glucocorticoid receptor [5]) | EC50 (Glucocorticoid receptor [6]) | IC50 (Cytochrome P450 1A2) | IC50 (Cytochrome P450 2C19) | IC50 (Cytochrome P450 2C9) | IC50 (Cytochrome P450 2D6) | Activity (Albumin) | fraction unbound [7] | IC50 (Cytochrome P450 3A4) | SMILES | Activity (A549)
9 | 25.1 nM | – | – | – | 6.31 nM | 50.1 nM | – | – | – | – | – | – | – | CCN(CC(O)(CNC(=O)c1cnn(-c2ccc(F)cc2)c1N)C(F)(F)F)C(=O)c1c(Cl)cc(Cl)cc1Cl (racemic) | 100%
10 | > 10000 nM | – | – | – | 316 nM | > 6310 nM | – | – | – | – | – | – | – | CCN(CC(O)(CNC(=O)c1cnn(-c2ccc(F)cc2)c1N)C(F)(F)F)C(=O)c1ccc(Cl)cc1 (racemic) | –
11 | 20 nM | – | – | – | 63.1 nM | 158 nM | > 40000 nM | 87000 nM | 23000 nM | 96000 nM | 81% | – | – | CCN(CC(O)(CNC(=O)c1cnn(-c2ccc(F)cc2)c1N)C(F)(F)F)C(=O)c1ccccc1S(C)(=O)=O (stereo not given) [listing 1 of 2 here] | –
12 | 12.6 nM | – | – | – | 12.6 nM | 20 nM | – | – | – | – | – | – | – | CCN(CC(O)(CNC(=O)c1cnn(-c2ccc(F)cc2)c1N)C(F)(F)F)C(=O)c1ccccc1F (stereo not given) | 98%
13 | – | 32 mL/min/kg | 4 L/kg | 25% | – | – | – | – | – | – | – | – | – | CCN(CC(O)(CNC(=O)c1cnn(-c2ccc(F)cc2)c1N)C(F)(F)F)C(=O)c1ccccc1Cl (racemic) | –
14 | 100 nM | – | – | – | 20 nM | 316 nM | – | – | – | – | – | – | – | CCN(CC(O)(CNC(=O)c1cnn(-c2ccc(F)cc2)c1N)C(F)(F)F)C(=O)c1ccc(F)cc1Cl (racemic) | 76%
15 | – | – | – | – | – | – | 100000 nM | 20000 nM | 10000 nM | 34000 nM | – | – | 4000 nM | CCN(CC(O)(CNC(=O)c1cnn(-c2ccc(F)cc2)c1N)C(F)(F)F)C(=O)c1ccccc1Cl (stereo in doubt; 13e) [listing 2 of 2 here] | –
16 | 10 nM | – | – | – | – | – | 100000 nM | 100000 nM | 14000 nM | 100000 nM | 83% | 0.15 | 4000 nM | CCN(CC(O)(CNC(=O)c1cnn(-c2ccc(F)cc2)c1N)C(F)(F)F)C(=O)c1ncccc1Cl (stereo not given) | –

Source: ChEMBL document CHEMBL1139273, “Aryl aminopyrazole benzamides as oral non-steroidal selective glucocorticoid receptor agonists” (Bioorg Med Chem Lett, 2009)
